According to patent EP4667458A1 (Kanaph Therapeutics Inc., priority 2023, dated 2024):

target: T1, KRAS^G12C::SOS1 (Homo sapiens, UniProt Q07889); test: KRAS G12C::SOS1 protein-protein interaction (PPI) inhibition assay (HTRF binding kit)
T1 sequence (Q07889 1-1333): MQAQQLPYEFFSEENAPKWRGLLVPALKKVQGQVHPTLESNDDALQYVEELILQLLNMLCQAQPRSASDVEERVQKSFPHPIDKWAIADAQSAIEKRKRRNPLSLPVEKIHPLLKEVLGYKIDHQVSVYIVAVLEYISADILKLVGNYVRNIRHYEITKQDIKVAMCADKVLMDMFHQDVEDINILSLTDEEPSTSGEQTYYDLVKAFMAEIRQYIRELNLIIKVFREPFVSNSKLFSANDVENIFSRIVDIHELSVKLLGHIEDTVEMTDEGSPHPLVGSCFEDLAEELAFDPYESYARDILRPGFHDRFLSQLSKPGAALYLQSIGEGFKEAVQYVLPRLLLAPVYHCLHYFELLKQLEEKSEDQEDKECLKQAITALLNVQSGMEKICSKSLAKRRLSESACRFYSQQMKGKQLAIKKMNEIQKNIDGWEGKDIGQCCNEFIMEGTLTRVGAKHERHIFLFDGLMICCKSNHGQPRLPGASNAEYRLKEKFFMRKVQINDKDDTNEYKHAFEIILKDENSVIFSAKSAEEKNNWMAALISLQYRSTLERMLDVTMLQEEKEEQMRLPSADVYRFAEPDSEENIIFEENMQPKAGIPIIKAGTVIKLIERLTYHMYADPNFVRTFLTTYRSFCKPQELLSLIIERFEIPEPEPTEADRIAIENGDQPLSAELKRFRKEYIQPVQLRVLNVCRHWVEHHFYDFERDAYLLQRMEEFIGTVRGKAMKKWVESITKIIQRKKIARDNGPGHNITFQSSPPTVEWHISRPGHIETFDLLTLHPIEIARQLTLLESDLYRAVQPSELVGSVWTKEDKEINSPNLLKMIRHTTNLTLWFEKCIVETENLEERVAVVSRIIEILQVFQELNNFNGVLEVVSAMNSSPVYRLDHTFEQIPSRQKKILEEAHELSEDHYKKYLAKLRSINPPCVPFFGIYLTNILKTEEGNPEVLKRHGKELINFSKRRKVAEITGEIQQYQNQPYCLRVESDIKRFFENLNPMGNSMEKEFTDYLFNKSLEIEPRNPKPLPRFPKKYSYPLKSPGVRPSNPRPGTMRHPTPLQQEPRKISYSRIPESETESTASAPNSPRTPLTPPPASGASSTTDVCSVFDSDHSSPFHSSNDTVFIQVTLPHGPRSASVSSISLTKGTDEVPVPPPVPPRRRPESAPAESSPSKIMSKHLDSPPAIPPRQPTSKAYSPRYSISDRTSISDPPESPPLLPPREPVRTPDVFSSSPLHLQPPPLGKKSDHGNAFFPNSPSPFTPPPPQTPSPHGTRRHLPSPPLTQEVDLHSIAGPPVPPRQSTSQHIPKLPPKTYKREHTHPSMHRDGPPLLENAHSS

| IC50 [nM] | SMILES |
| --- | --- |
| < 1000 | C[C@@H](NC(=O)c1ccc(=O)n(-c2ccc(F)cc2F)n1)c1cc(N)cc(C(F)(F)F)c1 [Example 362, N-[(1R)-1-[3-amino-5-(trifluoromethyl)phenyl]ethyl]-1-(2,4-difluorophenyl)-6-oxo-pyridazine-3-carboxamide] |
| < 1000 | CC(C)c1cccc([C@@H](C)NC(=O)c2ccc(=O)n(-c3ccccc3)n2)c1 [Example 201, N-[(1R)-1-(3-isopropylphenyl)ethyl]-6-oxo-1-phenyl-pyridazine-3-carboxamide] |
| < 1000 | CC(=O)Nc1cc(=O)n(-c2ccccc2)nc1C(=O)N[C@H](C)c1cc(N)cc(C(F)(F)F)c1 [Example 313, 4-acetamido-N-[(1R)-1-[3-amino-5-(trifluoromethyl)phenyl]ethyl]-6-oxo-1-phenyl-pyridazine-3-carboxamide] |
| < 1000 | CCOc1ccc(-n2nc(C(=O)N[C@H](C)c3cc(N)cc(C(F)(F)F)c3)ccc2=O)cc1 [Example 189, (R)-N-(1-(3-amino-5-(trifluoromethyl)phenyl)ethyl)-1-(4-ethoxyphenyl)-6-oxo-1,6-dihydropyridazine-3-carboxamide] |
| < 1000 | CNc1cc(=O)n(-c2ccccc2F)nc1C(=O)N[C@H](C)c1cc(N)cc(C(F)(F)F)c1 [Example 383, N-[(1R)-1-[3-amino-5-(trifluoromethyl)phenyl]ethyl]-1-(2-fluorophenyl)-4-(methylamino)-6-oxo-pyridazine-3-carboxamide] |
| < 1000 | C[C@@H](NC(=O)c1nn(-c2ccccc2F)c(=O)c2ccsc12)c1cc(N)cc(C(F)(F)F)c1 [Example 309, N-[(1R)-1-[3-amino-5-(trifluoromethyl)phenyl]ethyl]-5-(2-fluorophenyl)-4-oxo-thieno[2,3-d]pyridazine-7-carboxamide] |
| < 1000 | CNCc1cc(F)ccc1-c1ccc([C@@H](C)NC(=O)c2ccc(=O)n(-c3ccccc3F)c2)s1 [Example 280, N-[(1R)-1-[5-[4-fluoro-2-(methylaminomethyl)phenyl]-2-thienyl]ethyl]-1-(2-fluorophenyl)-6-oxo-pyridine-3-carboxamide] |
| < 1000 | C[C@@H](NC(=O)c1ccc(=O)n(-c2cccc(-c3ccccn3)c2)n1)c1cc(N)cc(C(F)(F)F)c1 [Example 325, N-[(1R)-1-[3-amino-5-(trifluoromethyl)phenyl]ethyl]-6-oxo-1-[3-(2-pyridyl)phenyl]pyridazine-3-carboxamide] |
| < 1000 | C[C@@H](NC(=O)c1ccc(=O)n(-c2cccc(C(=O)N3CCCC3)c2)n1)c1cc(N)cc(C(F)(F)F)c1 [Example 197, N-[(1R)-1-[3-amino-5-(trifluoromethyl)phenyl]ethyl]-6-oxo-1-[3-(pyrrolidine-1-carbonyl)phenyl]pyridazine-3-carboxamide] |
| < 1000 | C[C@@H](NC(=O)c1ccc(=O)n(-c2cccc(F)c2F)n1)c1cccc(C(F)(F)CO)c1F [Example 355, N-[(1R)-1-[3-(1,1-difluoro-2-hydroxy-ethyl)-2-fluoro-phenyl]ethyl]-1-(2,3-difluorophenyl)-6-oxo-pyridazine-3-carboxamide] |
| < 1000 | C[C@@H](NC(=O)c1nn(-c2ccccc2)c(=O)cc1Cl)c1cc(N)cc(C(F)(F)F)c1 [Example 220, N-[(1R)-1-[3-amino-5-(trifluoromethyl)phenyl]ethyl]-4-chloro-6-oxo-1-phenyl-pyridazine-3-carboxamide] |
| < 1000 | C[C@@H](NC(=O)c1ccc(=O)n(-c2cnn(C)c2)c1)c1cc(N)cc(C(F)(F)F)c1 [Example 165, N-[(1R)-1-[3-amino-5-(trifluoromethyl)phenyl]ethyl]-1-(1-methylpyrazol-4-yl)-6-oxo-pyridine-3-carboxamide] |
| < 1000 | C[C@@H](NC(=O)c1ccc(=O)n(Cc2ccccc2)n1)c1cc(N)cc(C(F)(F)F)c1 [Example 227, N-[(1R)-1-[3-amino-5-(trifluoromethyl)phenyl]ethyl]-1-benzyl-6-oxo-pyridazine-3-carboxamide] |
| 1000 to 10000 | C[C@H](NC(=O)c1ccc(=O)n(-c2ccccc2F)n1)c1cccc(F)c1Cl [Example 262, N-[(1S)-1-(2-chloro-3-fluorophenyl)ethyl]-1-(2-fluorophenyl)-6-oxo-pyridazine-3-carboxamide] |
| < 1000 | C[C@@H](NC(=O)c1ccc(=O)n(-c2ccc(OC(F)(F)F)cc2)n1)c1cccc(C(F)(F)CO)c1F [Example 202, N-[(1R)-1-[3-(1,1-difluoro-2-hydroxy-ethyl)-2-fluoro-phenyl]ethyl]-6-oxo-1-[4-(trifluoromethoxy)phenyl]pyridazine-3-carboxamide] |
| > 10000 | C[C@@H](NC(=O)c1ccc(=O)n(-c2ccccc2F)n1)c1cccc(Oc2ccccc2)c1 [Example 306, 1-(2-fluorophenyl)-6-oxo-N-[(1R)-1-(3-phenoxyphenyl)ethyl]pyridazine-3-carboxamide] |
| < 1000 | CNCc1ccc(C)cc1-c1ccc([C@@H](C)NC(=O)c2ccc(=O)n(-c3cccnc3F)c2)s1 [Example 272, 1-(2-fluoro-3-pyridyl)-N-[(1R)-1-[5-[5-methyl-2-(methylaminomethyl)phenyl]-2-thienyl]ethyl]-6-oxo-pyridine-3-carboxamide] |
| < 1000 | C[C@@H](NC(=O)c1ccc(=O)n(-c2cccc(-c3ccnn3C)c2)n1)c1cc(N)cc(C(F)(F)F)c1 [Example 333, N-[(1R)-1-[3-amino-5-(trifluoromethyl)phenyl]ethyl]-1-[3-(2-methylpyrazol-3-yl)phenyl]-6-oxo-pyridazine-3-carboxamide] |
| < 1000 | C[C@@H](NC(=O)c1ccc(=O)n(-c2ccccc2)n1)c1cccc(I)c1 [Example 188, (R)-N-(1-(3-iodophenyl)ethyl)-6-oxo-1-phenyl-1,6-dihydropyridazine-3-carboxamide] |
| < 1000 | C[C@@H](NC(=O)c1ccc(=O)n(-c2cccc(S(C)(=O)=O)c2)c1)c1cc(N)cc(C(F)(F)F)c1 [Example 167, N-[(1R)-1-[3-amino-5-(trifluoromethyl)phenyl]ethyl]-1-(3-methylsulfonylphenyl)-6-oxo-pyridine-3-carboxamide] |
| < 1000 | C[C@@H](NC(=O)c1ccc(=O)n(-c2cccc(-c3cnnn3C)c2)c1)c1cccc(C(F)(F)CO)c1F [Example 335, N-[(1R)-1-[3-(1,1-difluoro-2-hydroxy-ethyl)-2-fluoro-phenyl]ethyl]-1-[3-(3-methyltriazol-4-yl)phenyl]-6-oxo-pyridine-3-carboxamide] |
| < 1000 | CC(=O)Nc1cc(=O)n(-c2ccccc2F)nc1C(=O)N[C@H](C)c1cc(N)cc(C(F)(F)F)c1 [Example 382, 4-acetamido-N-[(1R)-1-[3-amino-5-(trifluoromethyl)phenyl]ethyl]-1-(2-fluorophenyl)-6-oxo-pyridazine-3-carboxamide] |
| < 1000 | CNCC(F)(F)c1cccc([C@@H](C)NC(=O)c2ccc(=O)n(-c3ccccc3F)n2)c1F [Example 256, N-[(1R)-1-[3-[1,1-difluoro-2-(methylamino)ethyl]-2-fluorophenyl]ethyl]-1-(2-fluorophenyl)-6-oxo-pyridazine-3-carboxamide] |
| < 1000 | C[C@@H](NC(=O)c1ccc(=O)n(-c2ccc3nnn(C)c3c2)n1)c1cc(N)cc(C(F)(F)F)c1 [Example 238, N-[(1R)-1-[3-amino-5-(trifluoromethyl)phenyl]ethyl]-1-(1-methyl-1H-1,2,3-benzotriazol-6-yl)-6-oxo-1,6-dihydropyridazine-3-carboxamide] |
| < 1000 | C[C@@H](NC(=O)c1ccc(=O)n(CCO)n1)c1cc(N)cc(C(F)(F)F)c1 [Example 223, N-[(1R)-1-[3-amino-5-(trifluoromethyl)phenyl]ethyl]-1-(2-hydroxyethyl)-6-oxo-pyridazine-3-carboxamide] |
| < 1000 | COc1cccc(-n2cc(C(=O)N[C@H](C)c3cc(N)cc(C(F)(F)F)c3)ccc2=O)c1F [Example 187, N-[(1R)-1-[3-amino-5-(trifluoromethyl)phenyl]ethyl]-1-(2-fluoro-3-methoxy-phenyl)-6-oxo-pyridine-3-carboxamide] |

| SMILES | IC50 [nM] |
| --- | --- |
| C[C@@H](NC(=O)c1ccc(=O)n(-c2ncccc2F)n1)c1cc(N)cc(C(F)(F)F)c1 [Example 388] | > 10000 |
